Experimental findings from a melting point compilation (Tetko et al.; mined from patent text by program, amines drawn as free bases though some values may be those of a salt) are described below.

Molecules are shown by their SMILES. Some results are limits rather than exact numbers.

The term melting point denotes the temperature, or range, at which the solid turns liquid. `COCCOc1ccc(/C=C/COC(=O)NS(=O)(=O)NCCOC(C)C)c(Oc2ncc(C(F)(F)F)cc2Cl)c1` showed a melting point of 127 to 128 °C.
For `O=C(O)[C@@H]1CCCC[C@H]1C(=O)CCS` (relative stereo) the value was 71 to 74 °C; for `COCCCn1nnnc1-c1cc(-c2cccc(C(=O)OC)c2)c(OCc2ccccc2)cc1OCc1ccccc1`, 105 to 108 °C; for `CCC1(COc2ccc(C(=O)O)cc2)COC1`, 128 °C.
On to `Clc1ccc(N2CCN(Cc3cn4cc(Br)ccc4n3)CC2)cc1`, for which the melting point is 154 to 155 °C.
For `O=C(Nc1cccc2c(=O)cc(C(=O)O)oc12)c1ccc2c(c1)CC(CSCc1ccccc1)O2` (stereo not given) the value was 122 to 125 °C; for `Cc1c(-c2ccc(O)cc2)n(Cc2ccc(OCCN3CC4(C)CC3CC(C)(C)C4)cc2)c2ccc(O)cc12` (stereo not given), 98 to 100 °C; for `CCc1nn(-c2ccc3cc(N=CN(C)C)c(=O)oc3c2)nc1C`, 158 to 159 °C.
On to `CC(C)CCSc1cccc(-c2nc(=O)c3ccccc3s2)n1`, for which the melting point is 103 to 105 °C.
Turning to `Nn1cc(F)c(=O)[nH]c1=O`, the melting point fell in the range of 196 to 199 °C.
For `COC(=O)CCc1cnoc1-c1ccc(Cl)cc1` the value was 51 to 52 °C; for `O=C1c2cc(-c3ccc(C(F)(F)F)cc3)ccc2CC1Br` (stereo not given), 105 °C.
Turning to `Cc1cccc(N)c1CNc1cccn2c(C=O)c(C)nc12`, the melting point lay in the range of 230 to 234 °C.
`CCCOc1ncc(NC(=O)CC(=O)O)cc1-c1nc2c(CCC)nn(C)c2c(=O)[nH]1`: the melting point lay within 261 to 262 °C.
As for `COc1cc2c(c3c1OC(C)(C)C3)C(c1cccc(Br)c1)=NCC2(C)C`, the figure is 127 to 129 °C; as for `COc1ccc(N(C(=O)Nc2cc(C)c(S(=O)(=O)C[N+](=O)[O-])c(C)c2)c2ccc(OC)cc2)cc1`, 150 to 151 °C.
For `O=C1CNCC2=C1N=C1N=C(N3CCOCC3)NN1C2` the value was 308 to 310 °C; for `COC(=O)/C=C/C=C/c1ccc(OCc2nc(-c3ccccc3)oc2C)c(OC)c1`, 166 to 167 °C; for `CCCC(=O)Nc1ccc2c(c1)CCC(CN1CCC(O)(c3ccccc3)CC1)C2=O` (stereo not given), 196 to 198 °C.
As for `O=C(Cc1ccccc1)NCC(O)c1ccccc1` (stereo not given), the figure is 97 to 99 °C; as for `CCC(=O)NC(=O)Nc1ccc(OC)c(OC)c1`, 193 to 197 °C.
Take `O=C(O)c1cc(-c2ccc(C(F)(F)F)cc2)nc(C(F)(F)F)c1`: the melting point was in the range of 204 to 205 °C.
For the compound `NC(=O)Cc1ccc2[nH]cc(CCNC(=O)OCc3ccccc3)c2c1`, the melting point was in the range of 124 to 125 °C.
Consider `COc1ccc(C=O)c(Cl)c1Cl`, for which the melting point lay in the range of 112 to 113 °C.
As for `COC(=O)C(CCCNC(=N)N[N+](=O)[O-])NC(=O)CCCC(=O)NCc1ccccc1` (single isomer, unassigned; (-)), the figure is 97 to 99 °C; as for `O=C(O)[C@@H]1CCCN1C(=O)C1CCCC1S` (stereo not given in full), 97 °C; as for `COc1ccc(-c2cc(C(=O)O)c(=O)n(Cc3ccc(F)cc3)n2)cc1F`, 222 to 224 °C.
For `Fc1ccc(-c2cc(Cl)nc3c2CCCC3)cc1` the value was 111 to 112 °C; for `CN(C)CCN(C(=O)c1cc([N+](=O)[O-])ccc1Br)c1ccnc2cc3c(cc12)OCO3`, 204 to 205 °C; for `CC1CC(=O)NN=C1c1ccc(Nc2nc(=O)cc[nH]2)cc1` (stereo not given), 268 to 270 °C.
In the case of `COc1ccc(S(=O)(=O)/C(=C/C(=O)NO)CCCCc2ccccc2)cc1OC`, the melting point fell in the range of 123 to 126 °C.
`COC(=O)c1cc(CCC2CNc3nc(NC(=O)C(C)(C)C)nc(O)c3C2)c[nH]1` (stereo not given): the melting point lay in the range of 236 to 238 °C.
For `c1ccc2cc(OCCc3c[nH]cn3)ccc2c1` the value was 157 to 158 °C.
For `COc1ccccc1NC(=O)NC1CC(N)(C(=O)O)C2C(C(=O)O)C12` (stereo not given) the value was more than 250 °C; for `Fc1ccc(-c2ccn(C3CCCNC3)c2-c2ccncc2)cc1` (stereo not given), 189 to 191 °C; for `C=CCNc1nc(-c2ccc(=O)n(C(C)C)n2)c(-c2ccccc2)nc1N`, 208 to 210 °C.
On to `O=C(O)c1cc(=O)c2cccc(/C=C/c3ccc(OCCCCc4ccc(F)cc4)cc3)c2o1`, for which the melting point was in the range of 161 to 162 °C.
As for `NC[C@@H]1CN(c2nc3c(cc2F)c(=O)c(C(=O)O)cn3C2CC2)C[C@@H]1F` (relative stereo), the figure is 217 to 218 °C; as for `Cc1nc(-c2cc(Cl)ccc2Cl)n2c1nnc1ccc(N3CCOCC3)cc12`, 239 to 242 °C; as for `CC(C(=O)N(C)C)n1ccc(-c2c(Cl)cccc2Cl)n1` (stereo not given), 88 to 90 °C.
For `COC(=O)c1ccc(N=Cc2ccc(Cl)c(Cl)c2)cn1` the value was 202 to 207 °C; for `COc1ccc2[nH]nc(N3CCN(CCCc4c(C)[nH]c5ccccc45)CC3)c2c1`, 145 to 147 °C.
`C=Cc1ccc(-c2ccc(OC(C)=O)cc2)cc1` came in with a melting point of 119 to 122 °C.
As for `Oc1cc2cc(-c3ccccc3Cl)sc2c(Cl)c1Cl`, the figure is 174 to 175 °C; as for `ClCc1ccc(OCc2coc(-c3ccccc3)n2)cc1`, 129 to 130 °C.
For `C[C@H]1C=CC2=C[C@@H](O)C[C@H](OC(=O)CC(C)(C)C)[C@@H]2[C@H]1CC[C@@H]1C[C@@H](O)CC(=O)O1` the value was 155 °C; for `CC(=O)CC1=C(O)CCCC1=O`, 80 to 81 °C; for `COC(=O)CCCc1nc(-c2ccc(F)cc2)c(-c2ccc(S(C)(=O)=O)cc2)o1`, 89 to 91 °C.
For the compound `CCCN(CCC)S(=O)(=O)c1cc(-c2csc(=Nc3ccc(C)cc3C)n2C)ccc1Cl`, the melting point fell in the range of 139 to 141 °C.
For the compound `O=C(NC1(O)CC1)c1ccccc1`, the melting point was 153 to 155 °C.
As for `NS(=O)(=O)c1ccc(-n2nc(C(F)F)cc2-c2cnccn2)cc1`, the figure is 191 to 194 °C.
Compound `CCCCCCCCCCCCCc1ccc(-c2nc(-c3ccccc3Cl)nn2C)cc1` yielded a melting point of 55 to 57 °C.
With `CCCc1c(S(=O)(=O)CCCOc2ccc(C(C)=O)c(OCCCC(=O)OCC)c2CCC)ccc(C(C)=O)c1O`, the melting point was 77 to 79 °C.
As for `C/C(C=O)=C\COc1cccc2ccccc12`, the figure is 81.5 to 82.5 °C.
Compound `O=C(O)CCC/C=C/c1ccc(-c2ccccc2)cc1` gave a melting point of 107 to 109 °C.
As for `C=C(CC(N)C(=O)OCC)CC(NC=O)(C(=O)OCC)C(=O)OCC` (stereo not given), the figure is 50 °C; as for `CCC1(CC)C(=O)N(C(C)(C)C)CC(C)(C)N1OC(C)(C)C#N`, 68 to 71 °C.
Take `Cc1cncc(C)c1CO`: the melting point was 93 to 95 °C.
As for `CCC(=O)Nc1ccc2c(c1)C(=O)c1cc(NC(=O)CC)ccc1C2=O`, the figure is 291 °C; as for `CC[C@@H](O)CC(=O)N[C@H]1CC[C@H](CCN2CCC(c3cccc4c3CCO4)CC2)CC1`, 201 °C; as for `CCN(CCCc1c[nH]c2c(Cl)cccc12)C1COc2c(F)ccc(C(N)=O)c2C1` (stereo not given), 146 to 152 °C.
As for `COc1ccc2c(c1)CCC1CCNC(=O)C(CSC)=C21` (stereo not given), the figure is 182 to 184 °C; as for `COC(=O)c1ccc(C(C)C(C)NCC(O)c2ccc(O)c(CO)c2)cc1` (stereo not given), 84.5 to 87 °C.
For `O=Cc1cn(-c2c(Cl)cc(C(F)(F)F)cc2Cl)c2ccccc12` the value was 167 to 169 °C; for `CSc1ccc(C2=CC(=O)C(C)(C)O2)cc1`, 107 to 109 °C; for `CC1(C)CCC(C)(C)c2cc(N(CCCCO)C(=O)Nc3cccc(C(=O)O)c3)ccc21`, 124 to 125 °C.
As to `Cn1ncnc1COc1nn2c(-c3ccccc3F)nncc2c1-c1cccnc1`, the melting point fell in the range of 181 to 183 °C.
`O=[N+]([O-])C=C1CN=C(c2ccccc2)c2sccc2N1` registered a melting point of 160 to 163 °C.
`O=C(O)c1cn(C(c2ccccc2)(c2ccccc2)c2ccccc2)c(I)n1` returned a melting point of 203 to 205 °C.
For `O=C1OCCN1c1cc(-c2ccnc(Nc3cccc(Cl)c3)n2)ccn1` the value was 162 to 163 °C; for `CN1N=C(C2CCCCC2)CC1=O`, 170 to 172 °C.
`CN(C)S(=O)(=O)CS(=O)(=O)c1ccccc1` gave a melting point of 102 to 103 °C.
`COC(=O)C(=O)c1ccc(OCCOc2ccc3ccccc3c2)c(Cl)c1` showed a melting point of 133 to 134 °C.
For `Oc1ccc(Nc2nccc(-c3cccnc3)n2)cc1` the value was 223 to 225 °C; for `O=C(O)c1ccc(OCCCCc2cc(-c3ccc(C(F)(F)F)cc3)no2)cc1`, 170 to 171 °C; for `COc1cccc(S(=O)(=O)NC(C)(C)C)c1`, 100 °C.
Regarding `CCCc1c(-c2ccc(C(=O)OC)cc2)oc2cc(NC(C)=O)ccc2c1=O`, the melting point came to 244 °C.
As for `NC(=O)c1cnc2ccccc2c1`, the figure is 132 to 138 °C; as for `COC(c1cccc2nc3n(c12)CCCN3c1ccc(Cl)cc1Cl)C1CC1` (stereo not given), 118 to 119 °C; as for `N#Cc1ccc(N2C(=O)[C@H]3C(O)C(O)CN3C2=O)c2ccccc12` (stereo not given in full), 225 °C.
As for `O=C(O)CCCCc1cc(O)c(O)cc1[N+](=O)[O-]`, the melting point was in the range of 111 to 114 °C.
As for `COCCNc1nc(C)nc2c1nnn2-c1ccc(C(C)C)cc1Br`, the figure is 134 to 136 °C.
For `CN(C)C(=O)CC(=O)c1ccc(C(=O)CC(=O)N(C)C)cc1` the value was 188 to 189 °C; for `C=CCOc1ccc(OC(C(O)C(C)(C)C)n2cncn2)cc1` (stereo not given), 85 °C; for `Cc1ccc(S(=O)(=O)NCCCCSc2ccc(NS(C)(=O)=O)cc2)cc1`, 95 to 96 °C.
For `COC(=O)CCCc1nc2c([nH]1)c(=O)n(C)c(=O)n2C` the value was 200 to 204 °C; for `O=C(O)c1ccc(-c2nc3ccccc3s2)nc1`, more than 300 °C.
On to `O=C(NNS(=O)(=O)c1ccccc1)c1ccc2c(c1)CCO2`, for which the melting point fell in the range of 181 to 183 °C.
The compound `COc1ccc(-c2ccc(C#N)cn2)cc1C=O` displayed a melting point of 197 to 198 °C.
For `COC(=O)[C@H](Cc1ccc(O)cc1)NC(=O)Cc1ccccc1`, the melting point stood at 101 °C.
